{
  "source": "paper PMC8047743",
  "about": "(ACS Omega, 2021)",
  "key": {"[1]": {"tested_on": "HepG2 cells", "assay": "In vitro cytotoxicity on HepG2 cells", "format": "cell-based", "settings": "50 μM, 24 h, MTT"}, "[2]": {"settings": "cited from earlier work"}},
  "data": [
    {"molecule": "Nc1c2c(nc3ccccc13)CCCC2", "note": "[tacrine, Tacrine]", "values": [
      {"measurement": "inhibitory rate (%) on HepG2 cells", "setting": "[1]", "value": "49.91 ± 0.61", "unit": "%"},
      {"measurement": "patients with increased serum alanine aminotransferase levels", "setting": "[2]", "value": "about 30%"}
    ]}
  ]
}
